Reference: the supplement of paper PMC7214452
Structures can show the parent of a compound that is named as a salt.

Experiments:
Assay in all cases: normalized area under the dose-response curve (viability relative to DMSO control) (fraction); higher = less sensitive (more viable cells)
Settings in all cases: exposure time not given
[1] = test system: L363 (cancer type: MM)
Description: (§1)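 25 myeloma and 15 non-Hodgkin lymphoma cell lines were exposed to each of 76 drugs as 7-point log dilutions (0.01 nM–10 µM) in duplicate. Viability was read with CellTiter-Glo and normalised to DMSO (0.1%) and staurosporine (10 µM) plate controls. Normalised AUC was calculated by the trapezoidal method relative to the negative control.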

[2] = test system: KMS11 (cancer type: MM)
Description: as §1

[3] = test system: KMS34 (cancer type: MM)
Description: as §1

[4] = test system: MM1.S (cancer type: MM)
Description: as §1

[5] = test system: AMO1 (cancer type: MM)
Description: as §1

[6] = test system: OCI-MY5 (cancer type: MM)
Description: as §1

[7] = test system: XG2 (cancer type: MM)
Description: as §1

[8] = test system: FR4 (cancer type: MM)
Description: as §1

[9] = test system: HuT 78 (cancer type: TCL)
Description: as §1

[10] = test system: MM1.R (cancer type: MM)
Description: as §1

[11] = test system: Mino (cancer type: Mantle)
Description: as §1

[12] = test system: KMS18 (cancer type: MM)
Description: as §1

[13] = test system: U266 (cancer type: MM)
Description: as §1

[14] = test system: OPM2 (cancer type: MM)
Description: as §1

[15] = test system: OCI-LY19 (cancer type: DLBCL)
Description: as §1

[16] = test system: SR-786 (cancer type: TCL)
Description: as §1

[17] = test system: OCI-MY5/CRBN (cancer type: MM)
Description: as §1

[18] = test system: NCI-H929 (cancer type: MM)
Description: as §1

[19] = test system: Granta-519 (cancer type: Mantle)
Description: as §1

[20] = test system: SU-DHL1 (cancer type: TCL)
Description: as §1

[21] = test system: JVM2 (cancer type: Mantle)
Description: as §1

[22] = test system: Se-Ax (cancer type: TCL)
Description: as §1

[23] = test system: KMS28BM (cancer type: MM)
Description: as §1

[24] = test system: My-La (cancer type: TCL)
Description: as §1

[25] = test system: KMS26 (cancer type: MM)
Description: as §1

[26] = test system: KMS28PE (cancer type: MM)
Description: as §1

[27] = test system: JeKo-1 (cancer type: Mantle)
Description: as §1

[28] = test system: RPMI 8226 (cancer type: MM)
Description: as §1

[29] = test system: Karpas-299 (cancer type: TCL)
Description: as §1

[30] = test system: SU-DHL2 (cancer type: DLBCL)
Description: as §1

[31] = test system: OCI-MY7 (cancer type: MM)
Description: as §1

[32] = test system: OCI-LY3 (cancer type: DLBCL)
Description: as §1

[33] = test system: EJM (cancer type: MM)
Description: as §1

[34] = test system: LP1 (cancer type: MM)
Description: as §1

[35] = test system: JJN3 (cancer type: MM)
Description: as §1

[36] = test system: SU-DHL6 (cancer type: DLBCL)
Description: as §1

[37] = test system: OCI-MY5/Vec (cancer type: MM)
Description: as §1

[38] = test system: KMS12PE (cancer type: MM)
Description: as §1

[39] = test system: SKMM2 (cancer type: MM)
Description: as §1

[40] = test system: OCI-LY1 (cancer type: DLBCL)
Description: as §1

SMILES | normalized area under the dose-response curve [1] | normalized area under the dose-response curve [2] | normalized area under the dose-response curve [3] | normalized area under the dose-response curve [4] | normalized area under the dose-response curve [5] | normalized area under the dose-response curve [6] | normalized area under the dose-response curve [7] | normalized area under the dose-response curve [8] | normalized area under the dose-response curve [9] | normalized area under the dose-response curve [10] | normalized area under the dose-response curve [11] | normalized area under the dose-response curve [12] | normalized area under the dose-response curve [13] | normalized area under the dose-response curve [14] | normalized area under the dose-response curve [15] | normalized area under the dose-response curve [16] | normalized area under the dose-response curve [17] | normalized area under the dose-response curve [18] | normalized area under the dose-response curve [19] | normalized area under the dose-response curve [20] | normalized area under the dose-response curve [21] | normalized area under the dose-response curve [22] | normalized area under the dose-response curve [23] | normalized area under the dose-response curve [24] | normalized area under the dose-response curve [25] | normalized area under the dose-response curve [26] | normalized area under the dose-response curve [27] | normalized area under the dose-response curve [28] | normalized area under the dose-response curve [29] | normalized area under the dose-response curve [30] | normalized area under the dose-response curve [31] | normalized area under the dose-response curve [32] | normalized area under the dose-response curve [33] | normalized area under the dose-response curve [34] | normalized area under the dose-response curve [35] | normalized area under the dose-response curve [36] | normalized area under the dose-response curve [37] | normalized area under the dose-response curve [38] | normalized area under the dose-response curve [39] | normalized area under the dose-response curve [40]
Cc1cc(Nc2ncc(Cl)c(Nc3ccccc3S(=O)(=O)C(C)C)n2)c(OC(C)C)cc1C1CCNCC1 [Ceritinib] | 0.352 | 0.344 | 0.0994 | 0.32 | 0.355 | 0.261 | 0.372 | 0.403 | 0.534 | 0.29 | 0.837 | 0.487 | 0.413 | 0.193 | 0.85 | 0.657 | 0.622 | 0.42 | 0.962 | 0.0824 | 0.899 | 0.442 | 0.276 | 0.828 | 0.677 | 0.161 | 0.885 | 0.303 | 0.61 | 0.926 | 0.63 | 0.813 | 0.502 | 0.365 | 0.281 | 0.877 | 0.539 | 0.54 | 0.348 | 0.966
CC(=O)c1c(C)c2cnc(Nc3ccc(N4CCNCC4)cn3)nc2n(C2CCCC2)c1=O [Palbociclib] | 0.743 | 0.79 | 0.751 | 0.69 | 0.529 | 0.561 | 0.656 | 0.716 | 0.712 | 0.77 | 0.655 | 0.81 | 0.688 | 0.852 | 0.727 | 0.821 | 0.9 | 0.91 | 0.876 | 0.705 | 0.65 | 0.776 | 0.932 | 0.745 | 0.769 | 0.851 | 0.656 | 0.636 | 0.837 | 0.897 | 0.82 | 0.791 | 0.733 | 0.794 | 0.694 | 0.771 | 0.746 | 0.74 | 0.782 | 0.889
CC(C)(C)c1nc(-c2cccc(NS(=O)(=O)c3c(F)cccc3F)c2F)c(-c2ccnc(N)n2)s1 [Dabrafenib mesylate] | 0.787 | 0.831 | 0.84 | 0.9 | 0.643 | 0.733 | 0.932 | 0.939 | 0.812 | 0.84 | 0.775 | 0.735 | 0.754 | 0.829 | 0.861 | 0.851 | 0.906 | 0.78 | 0.898 | 0.833 | 0.587 | 0.775 | 0.979 | 0.908 | 0.972 | 0.85 | 0.858 | 0.851 | 0.752 | 0.889 | 0.81 | 0.89 | 0.775 | 0.836 | 0.804 | 0.882 | 0.858 | 0.75 | 0.827 | 0.984
CC(C)C[C@H](NC(=O)[C@H](CCc1ccccc1)NC(=O)CN1CCOCC1)C(=O)N[C@@H](Cc1ccccc1)C(=O)N[C@@H](CC(C)C)C(=O)[C@@]1(C)CO1 [Carfilzomib] | 0.095 | 0.128 | 0.147 | 0.11 | 0.0997 | 0.105 | 0.0918 | 0.638 | 0.32 | 0.07 | 0.0636 | 0.0656 | 0.177 | 0.187 | 0.0752 | 0.25 | 0.0124 | 0.12 | 0.094 | 0.157 | 0.0748 | 0.113 | 0.0754 | 0.19 | 0.0786 | 0.11 | 0.0922 | 0.285 | 0.25 | 0.0281 | 0.11 | 0.0311 | 0.104 | 0.225 | 0.356 | 0.387 | 0.0171 | 0.18 | 0.264 | 0.0418
C=CC(=O)N1CCC[C@@H](n2nc(-c3ccc(Oc4ccccc4)cc3)c3c(N)ncnc32)C1 [Ibrutinib] | 0.759 | 0.738 | 0.518 | 0.81 | 0.715 | 0.628 | 0.863 | 0.793 | 0.928 | 0.77 | 0.681 | 0.916 | 0.726 | 0.676 | 0.865 | 0.825 | 0.937 | 0.84 | 0.798 | 0.746 | 0.668 | 0.739 | 0.786 | 0.782 | 0.763 | 0.723 | 0.686 | 0.765 | 0.845 | 0.903 | 1 | 0.829 | 0.857 | 0.892 | 0.728 | 0.852 | 0.88 | 0.74 | 0.922 | 0.636
COc1cc(C(=O)O)ccc1NC(=O)[C@@H]1N[C@@H](CC(C)(C)C)[C@](C#N)(c2ccc(Cl)cc2F)[C@H]1c1cccc(Cl)c1F [Idasanutlin] | 0.834 | 0.868 | 0.751 | 0.81 | 0.732 | 0.834 | 0.838 | 0.837 | 0.825 | 0.84 | 0.928 | 0.831 | 0.773 | 0.861 | 0.92 | 0.861 | 0.852 | 0.79 | 0.873 | 0.877 | 0.832 | 0.82 | 0.935 | 0.937 | 0.798 | 0.922 | 0.852 | 0.943 | 0.86 | 0.961 | 0.92 | 0.967 | 0.858 | 0.955 | 0.88 | 0.898 | 0.902 | 0.96 | 0.962 | 0.959
Cc1ccc(NC(=O)c2ccc(CN3CCN(C)CC3)cc2)cc1Nc1nccc(-c2cccnc2)n1 [Imatinib] | 0.749 | 0.714 | 0.562 | 0.88 | 0.789 | 0.793 | 0.839 | 0.816 | 0.9 | 0.84 | 0.958 | 0.807 | 0.783 | 0.752 | 0.928 | 0.934 | 0.892 | 0.93 | 0.943 | 0.774 | 0.759 | 0.79 | 0.902 | 0.98 | 0.918 | 0.79 | 0.915 | 0.885 | 0.876 | 0.943 | 0.93 | 0.935 | 0.887 | 0.785 | 0.789 | 0.92 | 0.804 | 0.9 | 0.926 | 1
COc1cc(Nc2c(C#N)cnc3cc(OCCCN4CCN(C)CC4)c(OC)cc23)c(Cl)cc1Cl [Bosutinib] | 0.525 | 0.5 | 0.447 | 0.83 | 0.45 | 0.39 | 0.501 | 0.598 | 0.714 | 0.77 | 0.653 | 0.798 | 0.874 | 0.606 | 0.898 | 0.872 | 0.933 | 0.8 | 0.771 | 0.667 | 0.534 | 0.736 | 0.629 | 0.795 | 0.863 | 0.54 | 0.889 | 0.651 | 0.701 | 0.836 | 0.79 | 0.792 | 0.663 | 0.451 | 0.571 | 0.924 | 0.914 | 0.58 | 0.697 | 0.856
